Test results from patent EP0393104B1, “MEASUREMENT OF PGE 2 (PROSTAGLANDIN E 2) LEVELS IN PATIENTS WITH CHRONIC INFLAMMATORY BOWEL DISEASE” (priority 1987, dated 1989).
“And” between values parts separate entries of the source, which are not always exact repeats. Equal values may be shown once.

Legend:
PGE2 [1] = test: Equilibrium in vivo dialysis of faeces with radioimmunoassay of PGE2 (SAZ withdrawal study); settings: individual patients randomized to SAZ (tablets 0.5 g; 2 tablets b.i.d.) after raised PGE2; first figure of the cell
Excerpt: (§1) Equilibrium in vivo dialysis of faeces as well as equilibrium in vivo dialysis of rectum were done in consenting patients fulfilling the entry criteria. Subsequently, SAZ treatment was stopped and the patients were observed free of medication. Evaluation of clinical disease activity, in addition to sigmoidoscopy with rectal biopsies for assessing endoscopic and histologic disease activity, were done at scheduled visits after two weeks, after two, six, and 12 months, and in-between, if indicated by recurrence of colitic symptoms. A relapse was defined as a recurrence of colitic symptoms accompanied by endoscopic signs of inflammation. If a relapse occurred the patient was withdrawn. At the scheduled visits also in vivo dialysis measurements were carried out. […]
Equilibrium in vivo dialysis of faeces was carried out as previously described, by pooling the contents of five swallowed dialysis bags following their intestinal transit (faecal dialysate). These dialysates were analyzed for concentrations of PGE2 (faecal PGE2).
(§2) Prostaglandin E2 was measured as previously described by a radioimmunological method validated by gas chromatograghy mass spectrometry. […]

ulcerative colitis = settings: background statement; cited from earlier work
PGE2 [2] = test: Equilibrium in vivo dialysis of rectum with radioimmunoassay of PGE2 (SAZ withdrawal study); set-up: species or system patients
Excerpt: as §1
Equilibrium in vivo dialysis of rectum was performed after insertion of a 12-cm-long dialysis bag into the emptied rectum as described above. The bag was left for four hours when it was removed and its contents (rectal dialysate) were analyzed for concentrations of PGE2 (rectal PGE2).
as §2

[3] = test system: inactive ulcerative colitis; test: Double-blind maintenance treatment with SAZ or placebo after rise of PGE2: relapse/remission; format: in vivo, patients
Excerpt: Patients fulfilling the following entry criteria were candidates for the study: (a) proven UC. […] Patients were considered in remission when symptom-free (i.e., stool frequency 2 x a day, without discharge of blood, pus, or mucus from the rectum), with normal sigmoidoscopic appearance, and with no significant inflammation on rectal biopsy.
as §1

PGE2 [4] = test: Equilibrium in vivo dialysis of rectum with radioimmunoassay of PGE2 (enema trial); set-up: species or system patients; settings: median, enema groups irrespective of SAZ (+/-), SAZ line = no enema, with SAZ maintenance
Protocol: The study was carried out as a block-randomized, double-blind trial. Before entry, clinical disease activity was assessed, and equilibrium in vivo dialysis of rectum was performed before the assessment of endoscopic and histologic disease activity. […] Primary stratification was done for patients already on maintenance treatment with SAZ. At day 15 the equilibrium in vivo dialysis of rectum was repeated, and clinical, endoscopic, and histologic activities were reassessed. Patients in complete clinical and endoscopic remission discontinued treatment with enemas, whereas the remainder continued therapy for another 14 days. In all cases equilibrium in vivo dialysis of rectum and assessment of disease activity were repeated at day 29. Withdrawal criteria included intolerance to treatment or deterioration (severe disease, C3) requiring systemic glucocorticoids.
In vivo dialysis of rectum was performed after insertion of a 12-cm-long dialysis bag (volume 4 ml; Visking seamless cellulose tubing 8/32 filled with Rheomacrodex@; Pharmacia, Uppsala, Sweden) containing 10% dextran (mean mol wt 40,000) in saline into the emptied rectum. To obtain equilibrium with the fluid covering the surface of rectal mucosa, the dialysis bag was left for 4 h before its contents were emptied into a test tube, which was stored immediately at -20°C (rectal dialysate) for analysis within 2 wk.
Prostaglandin E2 was measured as previously described in detail (K. Bukhave, J. Rask-Madsen J, 'Prostaglandin E2 in jejunal fluids and its potential diagnostic value for selecting patients with indomethacin-sensitive diarrhoea', 1981 European Journal of Clinical Investigation, 11:191-7) by a radioimmunologic method validated by gas chromatography-mass spectrometry (K. Bukhave, K Green, J. Rask-Madsen, 'Comparison of radioimmunological determinations with gas chromatography mass spectrometry dosage', 1983 Biomedical Mass Spectrometry, 10:265-8). The method included purification by extraction with ethylacetate/cyclo- hexane (1:1) and chromatography on microcolumns of Sephadex LH-20 (Pharmacia AB, Sweden) before performing the radioimmunoassay itself on the eluate fraction containing PGE2.

SMILES: O=C(O)c1cc(/N=N/c2ccc(S(=O)(=O)Nc3ccccn3)cc2)ccc1O [SAZ, sulphasalazine]
- Fecal PGE2 levels 6 months after R (PGE2 [1]): 0.20 ng/ml and 0.38 ng/ml and 0.43 ng/ml and 0.14/ND ng/ml and 0.32 ng/ml and 0.22 ng/ml
- patients allergic to SAZ or in other ways intolerant of the drug (ulcerative colitis): 10-20%
- PGE2 concentrations (PGE2 [2]; SAZ group n=6, six months after randomisation): decreased toward control levels
- Rectal PGE2 levels 6 months after R (PGE2 [2]; individual patients randomized to SAZ (tablets 0.5 g; 2 tablets b.i.d.) after raised PGE2, second figure of the cell): 0.64 ng/mL and 0.59 ng/mL and 2.11 ng/mL and 0.30 ng/mL and 0.26 ng/mL
- remission reinstated in relapsing patients by resuming SAZ alone ([3]; SAZ 2-3 g/day orally, 14 relapsing patients): seven cases
- relapse within the six-month treatment period ([3]; SAZ 2 g/day group n=6, placebo four of five, p<0.05, Fisher's exact test): none of the six patients
- Concentrations of PGE2 in rectal lumen (PGE2 [4]; clinical activity 0 (inactive)): 0.61(n=3) (0.47-2.2) ng/ml
- Concentrations of PGE2 in rectal lumen (PGE2 [4]; clinical activity 1 (mild)): 9.4(n=5) (0.35-36) ng/ml
- Concentrations of PGE2 in rectal lumen (PGE2 [4]; clinical activity 2-3 (moderate-severe)): 8.5(n=9) (0.32-52) ng/ml
- Concentrations of PGE2 in rectal lumen (PGE2 [4]; endoscopic activity 0 (inactive)): 0.61(n=3) (0.47-22) ng/ml
- Concentrations of PGE2 in rectal lumen (PGE2 [4]; endoscopic activity 1 (mild)): 3.2(n=3) (0.35-5.6) ng/ml
- Concentrations of PGE2 in rectal lumen (PGE2 [4]; endoscopic activity 2 (moderate)): 8.2(n=8) (0.32-36) ng/ml
- Concentrations of PGE2 in rectal lumen (PGE2 [4]; endoscopic activity 3 (severe)): 36(n=3) (8.9-52) ng/ml
